Consider eleven compounds from US5608069A, “1-substituted, 3-carboxylic acid piperidine derivatives” (Novo Nordisk A/S, priority 1993, dated 1997).

In general, IC50 refers to the concentration that inhibits the measured activity by half. High values mean a need for much substance, low ones inhibition by little substance.

Each structure is given as a SMILES string. Counter-ions that a name gives are not always drawn. A value given as a limit tells only on which side of the number the result lay.

For one series, the system named is [^3 H]-GABA uptake. The experiment in a line: in vitro inhibition of [^3 H]-GABA uptake (rat cortical tissue homogenate). Type of series: biochemical, Male wistar rat. Conditions: tris HCl buffer pH 7.5, 60 minutes at 30° C. On the procedure:
Values for in vitro inhibition of [^3 H]-GABA uptake for the invention compounds were assessed essentially by the method of Fjalland (Acta Pharmacol. Toxicol. 1978, 42, 73-76). Male wistar rat cortical tissue was gently homogenized by hand using a glass/PTFE homogenizer in 10 volumes of 0.32M sucrose. Incubation was performed in a 40 mM tris HCl buffer (pH 7.5 at 30° C.) containing […], 4 mM MgSO4, […] and 10 mM glucose, for 60 minutes at 30° C. Values for inhibition of GABA uptake for some representative compounds are recorded in Table I.
Turning to `CCCCCCC/C(=N/OCCN1CCC[C@@H](C(=O)O)C1)c1ccccc1` [Example 3, Z-(R)-1-(2-(((1-Phenyl-1-octanylidene)amino)oxy)ethyl)-3-piperidinecarboxylic acid hydrochloride], it took 2200 nM to reach half-maximal inhibition (IC50). On the same count and under the same terms, the figure for `COC/C(=N\OCCN1CCC[C@@H](C(=O)O)C1)c1ccccc1` [Example 5, Z-(R)-1-(2-(((2-Methoxy-1-phenyl-1-ethylidene)amino)oxy)ethyl)-3-piperidinecarboxylic acid hydrochloride] is 2000 nM; for `CCCCCCC/C(=N\OCCN1CCC[C@@H](C(=O)O)C1)c1ccccc1` [Example 4, E-(R)-1-(2-(((1-Phenyl-1-octanylidene)amino)oxy)ethyl)-3-piperidinecarboxylic acid hydrochloride] it is 1100 nM. `CC(C)C=C(C=NOCCN1CCC[C@@H](C(=O)O)C1)c1ccccc1` [Example 2] displayed an IC50 of 236 nM. Still for that read-out and setting: the figure for `O=C(O)[C@@H]1CCCN(CCO/N=C(/c2ccccc2)C(F)(F)F)C1` [Example 6, Z-(R)-1-(2-(((1-Phenyl-2,2,2-trifluoro-1-ethylidene)amino)oxy)ethyl)-3-piperidinecarboxylic acid hydrochloride] is 4500 nM; for `Cc1ccccc1/C=N/OCCN1CCC[C@@H](C(=O)O)C1` [Example 1, E-(R )-1-(2-((((2-Methylphenyl)methylene)amino)oxy)ethyl)-3-piperidinecarboxylic acid hydrochloride] it is above 9000 nM.

In another series the test system is GABA uptake.
Experiment: not given
Conditions: Yunger, L. M. et al., 1984; Krogsgaard-Larsen, P. et al., 1987; oral; cited from earlier work.
For the compound `O=C(O)CC1CCN(CCC=C(c2ccccc2)c2ccccc2)C1` (stereo not drawn) [SK&F 100561, N-(4,4-diphenyl-3-buten-1-yl)-homo-β-proline], the “orally active inhibition of GABA uptake (in words)” value (from here on “orally active inhibition”) is on record as “orally active inhibitors of GABA uptake”. For `O=C(O)C1CCCN(CCC=C(c2ccccc2)c2ccccc2)C1` (stereo not drawn) [SK&F 89976A, N-(4,4-diphenyl-3-buten-1-yl)nipecotic acid], the “orally active inhibition” value is listed as “orally active inhibitors of GABA uptake”. Consider `O=C(O)C1=CCCN(CCC=C(c2ccccc2)c2ccccc2)C1` [SK&F 100330A, N-(4,4-diphenyl-3-buten-1-yl)guvacine], for which the “orally active inhibition” value is “orally active inhibitors of GABA uptake”. For `O=C(O)C1CCCN(CCC=C(c2ccccc2)c2cccs2)C1` (stereo not drawn) [SK&F 100604J, N-(4-phenyl-4-(2-thienyl)-3-buten-1-yl)nipecotic acid], the “orally active inhibition” value is “orally active inhibitors of GABA uptake”.

The same series, now with this note: from the synaptic cleft into presynaptic nerve terminals and glial cells; cited from earlier work.
As for `O=C(O)C1CCCNC1` (stereo not drawn) [nipecotic acid, 3-piperidinecarboxylic acid], the “inhibition of GABA uptake (in words)” value is “well-known and potent inhibitor of GABA uptake”.

Test system in another series: not given
Experiment: not given
Conditions: relatively polar compound; cited from earlier work.
As for `O=C(O)C1CCCNC1` (stereo not drawn) [nipecotic acid, 3-piperidinecarboxylic acid], the “ability to cross the blood-brain barrier (in words)” value is given as “unable to cross the blood-brain barrier”.
